Source: patent US4435410A, “3-[2-(3-Alkyl and alkenyl-4-piperidyl)-ethyl]-indoles for inhibiting serotonin uptake and for releasing serotonin” (Pharmindustrie, priority 1981, dated 1984)

Tests used:
[1] = tested on: human blood platelets (uptake of serotonin); assay: Inhibition of the uptake of serotonin by human blood platelets; type: cell-based; conditions: Platelet, read-out: Inhibition of serotonin uptake I50
Description: It is known that the uptake of serotonin by the blood platelets constitutes a good model for the uptake of this amine by the neurons (cf. J. Tuomisto, J. Pharm. Pharmac., 26. 92 (1974). When it is applied to the study of medicaments, a method which makes use of the blood platelets is very attractive from the point of view of allowing human cells to be used, thereby giving it good prospects.
The ability of products to inhibit the uptake of serotonin or to cause its release has been shown on human blood platelets according to J. L. David and Coll. "Platelets Function and Thrombosis, a Review of Methods", p. 335 (Plenum Press, London, 1972).
(1) Inhibition of the uptake of serotonin
The results are expressed by a 50% inhibiting dose or I50 which represents the dose of the product in micromoles per liter, reducing the uptake of serotonin by 50%.

[2] = tested on: human blood platelets (release of serotonin); assay: Release of serotonin from human blood platelets; type: cell-based; conditions: Platelet, product concentration 5 × 10^-5 moles per liter, compared with controls, read-out: Percent of increased serotonin release
Procedure: The ability of products to inhibit the uptake of serotonin or to cause its release has been shown on human blood platelets according to J. L. David and Coll. "Platelets Function and Thrombosis, a Review of Methods", p.
The action of the products on the release of serotonin is tested at a concentration of 5×10^-5 moles per liter.

[3] = Acute toxicity in male mice by oral administration; conditions: mouse, in vivo; male mice CD1, oral, after 3 days' observation, cumulative method
Procedure: The acute toxicity of the products was determined in male mice CD1 (Charles RIVER) by oral administrations. The LD50 which was calculated after 3 days' observation, by the cumulative method of J. J. Reed and Coll. (Am. J. Hyg. 27, 493-1938) is 225 mg/kg for the compound of Example 1, and about 200 mg/kg for the compound of Example 4.

SMILES	IC50 [1] [nM]	activation at 50 µM [2] [%]	LD50 at 72 h [3] [mg/kg]
C=C[C@H]1CNCC[C@H]1CCc1c[nH]c2ccccc12 [Example 1, 3-[2-(3(R)VINYL-4(R)PIPERIDYL)-ETHYL]-INDOLE]	8	84	225
CC[C@H]1CNCC[C@H]1CCc1c[nH]c2ccccc12 [Example 2, 3-{2-[3(R)ETHYL-4(R)PIPERIDYL]-ETHYL}-INDOLE]	60	75	
C=C[C@@H]1CNCC[C@H]1CCc1c[nH]c2ccccc12 [Example 4, 3-{2-[3(S)VINYL-4(R)PIPERIDYL]-ETHYL}-INDOLE]	35	91	~200
